Values after ≈ are worked out from the molar mass of the structure shown. Where a SMILES comes first, the peptide text is derived from it. Bridges are numbered along the chain shown (N, C = ends). [ ]: non-standard residue; d: D form. The star is where a group is joined. Asp(3S-OH) = N[C@H](C(=O)O)[C@H](O)C(=O)O; Thr(4-Cl) = N[C@H](C(=O)O)[C@H](O)CCl; X1 = CCCCCCCCC[C@@H](O)CC(=O)*; dDab = NCC[C@@H](N)C(=O)O; Dab = NCC[C@H](N)C(=O)O; Dhb = C/C=C(\N)C(=O)O
Assays:
[1] = test system: P. falciparum D6; assay type: cell-based; settings: D6 isolate, pH 7.0, 66 hour incubation
Description: (§1) P. falciparum used in this study were two well characterized clones, W2 and D6, as described in Oduola, A. M. et al., Plasmodium falciparum: cloning by single-erythrocyte micromanipulation and heterogeneity in vitro; Exp. Parasitol. 66, 86-95 (1988), the contents of which are incorporated herein by this reference. W2 is a clone of the Indochina I isolate and is resistant to chloroquine and pyrimethamine, but susceptible to mefloquine. D6 is a clone from the Sierra I/UNC isolate and is susceptible to chloroquine and pyrimethamine, but has reduced susceptibilities to mefloquine and halofantrine.
(§2) The susceptibility of P. falciparum to Syr-E was studied using a modified antimalarial drug susceptibility screen following the procedures published by Desjardins et al., Quantitative assessment of antimalarial activity in vitro by semiautomated microdilution technique (1979), with modifications developed by Milhous et al., In vitro strategies for circumventing antimalarial drug resistance, Prog. […]
(§3) Syr-E was dissolved directly in dimethylsulfoxide (DMSO) and diluted 400 fold with complete culture media and started at a highest concentration of 50,000 ng/ml. […] The filter mats were then counted in a scintillation counter and the data downloaded with custom, automated analysis software (developed at the Walter Reed Army Institute of Research). […]

[2] = test system: P. falciparum W2; assay type: cell-based; settings: W2 isolate, pH 7.0, 66 hour incubation
Description: as §1, §2, §3

[3] = test system: BFTE cells; test: Toxic effect of Syr-E on BFTE host cells at pH 6.3 (neutral red assay, visual observation); assay type: cell-based, bovine
Protocol: Primary BFTE cell cultures were prepared from bovine fallopian tubes (FT). Fat was trimmed from the serosal surfaces, mucus was gently squeezed from the lumens, and FT were decontaminated by being submerged in 70% ethanol for 30 seconds. The FT were then transferred to sterile culture petri dishes containing HBSS and washed twice. The BFTE cells were harvested either by flushing the FT with HBSS, using a 10 ml syringe equipped with a mouse feeding needle, or by opening the FT lengthwise with scissors and scraping the mucosal surfaces. The BFTE cells were subsequently washed in HBSS by centrifugation at 200×g (force of gravity) for 10 minutes, planted in 75-cm^2 flasks containing RPMI 1640 and cultured in a 5% CO2 incubator at 37° C. for 72 to 120 hours. When the cell lines reached confluency, they were trypsinized, split, and planted onto cover slips positioned on the bottoms of individual wells in 24-well tissue culture plates. When cells reached 80% confluency, they were inoculated with either 10^5 oocysts or 4×10^5 sporozoites per well. Plates were then maintained at 37° C. in a candle jar environment (17% O2, 3% CO2, 80% N2). Growth medium was changed in each well every 72 hours. In wells inoculated with oocysts, the medium was first changed at 24 hours to remove any unexcysted oocysts.
Neutral red assay was used to measure viewable cell damage, such as obvious plaque forming and cell peeling. Briefly, 0.1 ml of neutral red was directly added to supernatant in each well of 96-well plates at the termination of the culture. Following 1-hr incubation at 37°C., the supernatant mixture from each well was discarded and cells at the bottom of the wells were rinsed twice with PBS. A volume of 0.2 ml/well extract buffer was added and the content in each well was well mixed prior to 30 min. incubation in the dark at 25°C. cytotoxicity was quantitatively read using a Microplate Autoreader (Bio-Tek Instruments, Inc., Winooski, Vt.) with a wavelength set at 540 nm.
Samples were collected on day 2 post inoculation. Each group consisted of both uninfected (empty bar) and C. parvum infected (solid bar) subgroups. In group 1, the medium pH was adjusted to 7.2, no Syr-E was used, and the cytotoxicity of the uninfected subgroup set to zero percent. Medium pH in groups 2-8 was adjusted to 6.3 and groups 3-8 received Syr-E treatments at 1, 2, 4, 8, 16, and 32 ,g/ml, respectively. Data are presented as the means +/- standard error of the mean. The cytotoxic effect increased from approximately 40% to 60% as Syr-E concentrations were elevated from 1 to 16 μg/ml, presenting a dose-dependent response. […] BFTE cells were 98% destroyed when Syr-E concentration reached 32 μg/ml at pH 6.3.

C/C=C1\NC(=O)[C@H](Cc2ccccc2)NC(=O)[C@H](CCCNC(=N)N)NC(=O)[C@H](CCN)NC(=O)[C@@H](CCN)NC(=O)[C@@H](CO)NC(=O)[C@@H](NC(=O)C[C@H](O)CCCCCCCCC)COC(=O)[C@H]([C@H](O)CCl)NC(=O)[C@H]([C@H](O)C(=O)O)NC1=O [Syr-E, Syringomycin-E] (X1-S[dS][dDab][Dab]RF[Dhb][Asp(3S-OH)][Thr(4-Cl)]; ester 1-C)
IC50 [1]: 3.03 µg/mL (≈ 2.47 µM) | IC50 [2]: 3.23 µg/mL (≈ 2.64 µM) | cytotoxic effect (neutral red assay) ([3]; Syr-E 1 μg/ml, BFTE cells, pH 6.3, day 2 post inoculation): approximately 40% | cytotoxic effect (neutral red assay) ([3]; Syr-E 16 μg/ml, BFTE cells, pH 6.3, day 2 post inoculation): ~60% | BFTE cells destroyed (neutral red assay) ([3]; Syr-E 32 μg/ml, pH 6.3, day 2 post inoculation): 98% | visual cell damage ([3]; Syr-E 0.5-9.0 μg/ml, BFTE cells, pH 6.3): Visual cell plaques were observed

Source: patent US6310037A, “Method of controlling protozoan infections using syringomycin-family lipodepsipeptides” (Utah State University, priority 1999, dated 2001)
